Laboratory results reported in patent US12415786B2, “Substituted 2-heteroarylaminobenzenes and the salts thereof and their use as herbicidal agents” (Bayer Aktiengesellschaft, priority 2019, dated 2025).

How the values were obtained:
Format in all cases: in vivo
Agrostis tenuis = assay: Herbicidal early post-emergence action (96-well microtiter plates), AGSTE; conditions: 1900 g/ha, scored 9 to 12 days after treatment, 100% = plants have died, 0% = like untreated control plants
Text: (§1) In the examples and tables below, the following abbreviations are used: • Undesired Plants/Weeds: • ABUTH: Abutilon theophrasti • AGSTE: Agrostis tenuis • AMARE Amaranthus retroflexus • ECHCG: Echinochloa crus-galli • LOLRI: Lolium rigidum • MATIN: Matricaria inodora • POAAN: Poa annua • SETVI: Setaria viridis • STEME: Stellaria media A. Herbicidal Early Post-Emergence Action Seeds of monocotyledonous and dicotyledonous weed plants were placed in 96-well microtiter plates in quartz sand and grown in a climatized chamber under controlled growth conditions. 5 to 7 days after sowing, the test plants were treated at the cotyledon stage. The compounds according to the invention, formulated in the form of emulsion concentrates (EC), were applied with a water application rate of the equivalent of 2200 liters per hectare. After the test plants had been left to stand in the climatized chamber for 9 to 12 days under optimum growth conditions, the effect of the preparations was scored visually in comparison to untreated controls. Here, for example, 100% activity=the plants have died, 0% activity=like untreated control plants. Tables A1 to A2 below show the effects of selected compounds of the general formula (I) according to Table 1 above on various harmful plants and an application rate corresponding to 1900 g/ha, which were obtained by the experimental procedure mentioned above.

Poa annua [1] = assay: Herbicidal early post-emergence action (96-well microtiter plates), POAAN; conditions: 1900 g/ha, scored 9 to 12 days after treatment, 100% = plants have died, 0% = like untreated control plants
Text: as §1

Amaranthus retroflexus [2] = assay: Herbicidal post-emergence action (greenhouse pots), AMARE; conditions: 1280 g/ha, visual rating about 3 weeks after treatment vs untreated controls
Text: (§2) In the examples and tables below, the following abbreviations are used: • Undesired Plants/Weeds: • ABUTH: Abutilon theophrasti • AGSTE: Agrostis tenuis • AMARE Amaranthus retroflexus • ECHCG: Echinochloa crus-galli • LOLRI: Lolium rigidum • MATIN: Matricaria inodora • POAAN: Poa annua • SETVI: Setaria viridis • STEME: Stellaria media A. Herbicidal Early Post-Emergence Action Seeds of mono- and dicotyledonous weed plants were placed in plastic pots in sandy loam soil (doubly sown with in each case one species of mono- or dicotyledonous weed plants per pot), covered with soil and cultivated in a greenhouse under controlled growth conditions. 2 to 3 weeks after sowing, the test plants were treated at the one-leaf stage. The compounds of the invention, formulated in the form of wettable powders (WP) or as emulsion concentrates (EC), were applied onto the green parts of the plants as aqueous suspension or emulsion with addition of 0.5% additive at a water application rate of 600 liters per hectare (converted). After the test plants had been kept in the greenhouse under optimum growth conditions for about 3 weeks, the activity of the preparations was rated visually in comparison to untreated controls. For example, 100% activity=the plants have died, 0% activity=like untreated control plants. Tables B1-B8 below show the effects of selected compounds of the general formula (I) according to Table 1 above on various harmful plants and an application rate corresponding to 1280 g/ha, which were obtained by the experimental procedure mentioned above.

Poa annua [3] = assay: Herbicidal pre-emergence action (greenhouse pots), POAAN; conditions: 1280 g/ha, visual scoring after about 3 weeks vs untreated controls
Text: (§3) In the examples and tables below, the following abbreviations are used: • Undesired Plants/Weeds: • ABUTH: Abutilon theophrasti • AGSTE: Agrostis tenuis • AMARE Amaranthus retroflexus • ECHCG: Echinochloa crus-galli • LOLRI: Lolium rigidum • MATIN: Matricaria inodora • POAAN: Poa annua • SETVI: Setaria viridis • STEME: Stellaria media A. Herbicidal Early Post-Emergence Action Seeds of mono- and dicotyledonous weed plants were placed in plastic pots in sandy loam soil (doubly sown with one species each of mono- or dicotyledonous weed plants per pot) and covered with soil. The compounds of the invention, formulated in the form of wettable powders (WP) or as emulsion concentrates (EC), were then applied onto the surface of the covering soil as aqueous suspension or emulsion with addition of 0.5% additive at a water application rate of 600 liters per hectare (converted). After the treatment, the pots were placed in a greenhouse and kept under good growth conditions for the test plants. After about 3 weeks, the effect of the preparations was scored visually in comparison with untreated controls as percentages. For example, 100% activity=the plants have died, 0% activity=like untreated control plants. Tables C1-C8 below show the effects of selected compounds of the general formula (I) according to Table 1 above on various harmful plants and an application rate corresponding to 1280 g/ha, which were obtained by the experimental procedure mentioned above.

Setaria viridis = assay: Herbicidal pre-emergence action (greenhouse pots), SETVI; conditions: 1280 g/ha, visual scoring after about 3 weeks vs untreated controls
Text: as §3

Amaranthus retroflexus [4] = assay: Herbicidal pre-emergence action (greenhouse pots), AMARE; conditions: 1280 g/ha, visual scoring after about 3 weeks vs untreated controls
Text: as §3

Matricaria inodora = assay: Herbicidal pre-emergence action (greenhouse pots), MATIN; conditions: 1280 g/ha, visual scoring after about 3 weeks vs untreated controls
Text: as §3

Stellaria media [5] = assay: Herbicidal pre-emergence action (greenhouse pots), STEME; conditions: 1280 g/ha, visual scoring after about 3 weeks vs untreated controls
Text: as §3

Echinochloa crus-galli = assay: Herbicidal pre-emergence action (greenhouse pots), ECHCG; conditions: 1280 g/ha, visual scoring after about 3 weeks vs untreated controls
Text: as §3

Abutilon theophrasti = assay: Herbicidal post-emergence action (greenhouse pots), ABUTH; conditions: 1280 g/ha, visual rating about 3 weeks after treatment vs untreated controls
Text: as §2

Stellaria media [6] = assay: Herbicidal post-emergence action (greenhouse pots), STEME; conditions: 1280 g/ha, visual rating about 3 weeks after treatment vs untreated controls
Text: as §2

Compound	AGSTE (herbicidal activity, scored visually in comparison to untreated controls) (Agrostis tenuis) [%]	POAAN (herbicidal activity, scored visually in comparison to untreated controls) (Poa annua [1]) [%]	herbicidal activity AMARE (Amaranthus retroflexus [2]) [%]	herbicidal activity POAAN (Poa annua [3]) [%]	herbicidal activity SETVI (Setaria viridis) [%]	herbicidal activity AMARE (Amaranthus retroflexus [4]) [%]	herbicidal activity MATIN (Matricaria inodora) [%]	herbicidal activity STEME (Stellaria media [5]) [%]	herbicidal activity ECHCG (Echinochloa crus-galli) [%]	herbicidal activity ABUTH (Abutilon theophrasti) [%]	herbicidal activity STEME (Stellaria media [6]) [%]
N#Cc1cnc(Nc2cccc(C#N)c2Oc2ccc(F)cc2)nc1 [Example 1-304]	100	100	100	100	100	100	100	100	–	–	–
N#Cc1cccc(Nc2ncc(Cl)cn2)c1Oc1cccc(F)c1 [Example 1-285]	–	–	100	100	100	100	–	100	90	–	–
COc1cccc(Oc2c(C#N)cccc2Nc2ncc(Cl)cn2)c1 [Example 1-300]	80	–	100	–	–	90	90	100	–	–	–
N#Cc1cccc(Nc2ncccn2)c1Oc1ccc(Cl)cc1F [Example 1-256]	80	80	100	100	90	100	90	100	–	–	–
N#Cc1cccc(Nc2ccc(F)cn2)c1Oc1ccc(F)c(F)c1 [Example 1-111]	100	100	100	–	90	100	90	100	–	90	90
N#Cc1ccc(Oc2ccccc2Nc2ncc(Cl)cn2)cc1 [Example 1-339]	100	100	100	–	–	–	–	–	–	–	100
N#Cc1cccc(Nc2ncc(F)cn2)c1Oc1ccc(F)cc1Cl [Example 1-274]	80	100	100	90	–	90	–	90	–	–	90
Clc1cnc(Nc2ccccc2Oc2cccnc2)nc1 [Example 3-49]	80	–	100	–	–	–	–	–	–	90	–
Clc1cnc(Nc2cccc(Cl)c2Oc2ccccc2)nc1 [Example 1-340]	80	100	100	100	100	100	–	90	–	90	100
N#Cc1cccc(Nc2ccccn2)c1Oc1ccc(F)cc1 [Example 1-88]	100	80	–	–	90	100	–	–	–	–	100
N#Cc1cccc(Nc2ncccn2)c1Oc1ccc(F)cc1F [Example 1-251]	80	80	100	–	90	100	100	100	–	–	–
COc1cnc(Nc2cccc(C#N)c2Oc2ccc(F)cc2)nc1 [Example 1-312]	100	100	100	100	90	100	100	100	–	100	100
N#Cc1cnc(Nc2cccc(C#N)c2Oc2ccc(F)c(F)c2)nc1 [Example 1-305]	100	100	100	100	90	100	100	100	–	–	100
N#Cc1cccc(Nc2ncccn2)c1Oc1ccc(F)cc1Cl [Example 1-255]	80	80	100	–	–	100	–	100	–	–	100
N#Cc1cccc(Nc2ncc(OC(F)F)cn2)c1Oc1ccc(F)cc1 [Example 1-314]	100	80	100	–	100	–	–	–	–	90	100
N#Cc1cccc(Nc2ncc(Cl)cn2)c1Oc1ccc(F)cc1Cl [Example 1-293]	80	80	100	–	100	100	–	90	–	90	–
N#Cc1cccc(Nc2ncccn2)c1Oc1ccc(Cl)cc1 [Example 1-250]	80	80	100	100	90	100	–	100	–	–	90
N#Cc1cccc(Nc2ccc(F)cn2)c1Oc1ccc(F)cc1 [Example 1-106]	100	100	100	100	–	100	–	–	–	–	90
